In test [1] the test system is rear paw which has received the carrageenin. Kind of test: Anti-inflammatory activity: carrageenin-induced rear paw swelling, oral administration. Particulars: for inhibition in vivo at 16 mg/kg / inhibition in vivo at 64 mg/kg / inhibition in vivo at 128 mg/kg / inhibition in vivo at 256 mg/kg / inhibition in vivo at 4 mg/kg: Rattus norvegicus, read-out: % of inhibition (reduction of swelling); for inhibition in vivo at 16 mg/kg: 16 mg/kg oral administration; for inhibition in vivo at 128 mg/kg: 128 mg/kg oral administration; for inhibition in vivo at 256 mg/kg: 256 mg/kg oral administration; for inhibition in vivo at 4 mg/kg: 4 mg/kg oral administration. The test is classed as in vivo, rats (male SPF, strain OFA). The procedure:
Batches of 12 male SPF rats, strain OFA, weighing 120-130 g each, are given the product to be tested by oral administration 2 hours before and 30 minutes before (1/2 dose each time) subcutaneous plantar injection of 0.05 cm^3 of a 1% solution of carrageenin. The volume of the rear paw which has received the carrageenin is measured at regular intervals.

In test [2] the test system is pain reactions (abdominal contortions). Kind of test: Analgesic activity: phenylbenzoquinone-induced pain reactions, oral administration. Format: in vivo, mice (male, SPF1, strain OF1). Particulars: Mus musculus; for inhibition in vivo at 8 mg/kg: 8 mg/kg oral administration; for inhibition in vivo at 16 mg/kg: 16 mg/kg oral administration; for inhibition in vivo at 32 mg/kg: 32 mg/kg oral administration; for inhibition in vivo at 64 mg/kg: 64 mg/kg oral administration; for inhibition in vivo at 256 mg/kg: 256 mg/kg oral administration; for inhibition in vivo at 4 mg/kg: 4 mg/kg oral administration. The procedure: Batches of 6 male mice (SPF1, strain OF1), weighing 19-20 g each are given the product to be tested, by oral administration. One hour afterwards, each mouse is injected intraperitoneally with 0.3 cm^3 of an 0.02% strength phenylbenzoquinone solution and from the 5th to the 10th minute after this latter treatment, the number of pain reactions (abdominal contortions) is counted. The table which follows gives the percentage inhibition of these reactions.

Counter-ions that a name gives are not always drawn.

Consider `CCC1Cc2cc(C(C)C(=O)O)sc2C1` (stereo not shown) [23 & 27], for which, in test [1], the inhibition in vivo at 16 mg/kg stood at 30%, the inhibition in vivo at 128 mg/kg amounted to 66% and the inhibition in vivo at 256 mg/kg is 56%. The inhibition in vivo at 64 mg/kg in test [1] (64 mg/kg oral administration) was found to be 67%. Moreover, in test [2], the inhibition in vivo at 8 mg/kg was 7%, the inhibition in vivo at 16 mg/kg is 35%, the inhibition in vivo at 32 mg/kg came out at 79% and the inhibition in vivo at 64 mg/kg amounted to 98%.
With `CCC1Cc2cc(CC(=O)OCCN(C)C)sc2C1` (stereo not shown) [Example 33, Hydrochloride of the dimethylaminoethyl ester of (5-ethyl-4,5-dihydro-6H-cyclopenta[b]thienyl-2)-acetic acid], in test [1], the inhibition in vivo at 4 mg/kg turned out to be 2%, the inhibition in vivo at 16 mg/kg was determined as 17%, the inhibition in vivo at 128 mg/kg was determined as 54% and the inhibition in vivo at 256 mg/kg stood at 52%. Moreover, the inhibition in vivo at 64 mg/kg in test [1] (64 mg/kg oral administration) stood at 55%. In test [2], this molecule gave an inhibition in vivo at 16 mg/kg of 37%, an inhibition in vivo at 64 mg/kg of 17% and an inhibition in vivo at 256 mg/kg of 95%.
`CCC1Cc2cc(C(C)C(=O)OCCN(C)C)sc2C1` (stereo not drawn) [Example 34, Hydrochloride of the dimethylaminoethyl ester of α-methyl-(5-ethyl-4,5-dihydro-6H-cyclopenta[b]thienyl-2)-acetic acid]: in test [1], the inhibition in vivo at 4 mg/kg was 3%, the inhibition in vivo at 16 mg/kg was 12%, the inhibition in vivo at 128 mg/kg was found to be 64% and the inhibition in vivo at 256 mg/kg turned out to be 82%. Besides, the inhibition in vivo at 64 mg/kg in test [1] (64 mg/kg oral administration) amounted to 45%. In test [2], the inhibition in vivo at 4 mg/kg came out at 21%, the inhibition in vivo at 8 mg/kg was found to be 46%, the inhibition in vivo at 16 mg/kg amounted to 74% and the inhibition in vivo at 32 mg/kg came to 95%.
Turning to `CC(C)C1Cc2cc(CC(=O)OCCN(C)C)sc2C1` (stereo not shown) [Example 40, Hydrochloride of the dimethylaminoethyl ester of (5-isopropyl-4,5-dihydro-6H-cyclopenta[b]thienyl-2)-acetic acid], in test [1], the inhibition in vivo at 4 mg/kg was determined as 8%, the inhibition in vivo at 16 mg/kg is 7%, the inhibition in vivo at 128 mg/kg worked out at 22% and the inhibition in vivo at 256 mg/kg is 32%. Moreover, the inhibition in vivo at 64 mg/kg in test [1] (64 mg/kg oral administration) is 13%. In test [2], this molecule had an inhibition in vivo at 16 mg/kg of 0%, an inhibition in vivo at 64 mg/kg of 31% and an inhibition in vivo at 256 mg/kg of 88%.
With `CC(C(=O)OCCN(C)C)c1cc2c(s1)CC(C(C)C)C2` (stereo not shown) [Example 37], the “% of inhibition (reduction of swelling)” value in test [1] (64 mg/kg oral administration) came out at 45Z. For the same molecule, in test [1], the inhibition in vivo at 4 mg/kg amounted to 5%, the inhibition in vivo at 16 mg/kg was 35%, the inhibition in vivo at 128 mg/kg stood at 63% and the inhibition in vivo at 256 mg/kg was found to be 58%. Besides, in test [2], the inhibition in vivo at 4 mg/kg came out at 10%, the inhibition in vivo at 8 mg/kg stood at 53%, the inhibition in vivo at 16 mg/kg was found to be 42% and the inhibition in vivo at 32 mg/kg stood at 80%.
As to `CCC1Cc2cc(CC(=O)OCCN3CCOCC3)sc2C1` (stereo not shown) [Example 32, Hydrochloride of the morpholinoethyl ester of (5-ethyl-4.5-dihydro-6H-cyclopenta[b]thienyl-2)-acetic acid], in test [1], the inhibition in vivo at 4 mg/kg is 0%, the inhibition in vivo at 16 mg/kg stood at 16%, the inhibition in vivo at 128 mg/kg is 51% and the inhibition in vivo at 256 mg/kg is 53%. In addition, the inhibition in vivo at 64 mg/kg in test [1] (64 mg/kg oral administration) was 20%. In test [2], the inhibition in vivo at 16 mg/kg is 25%, the inhibition in vivo at 32 mg/kg worked out at 48% and the inhibition in vivo at 64 mg/kg was 53%.
In the case of `CC(C(=O)O)c1cc2c(s1)CC(C(C)C)C2` (stereo not shown) [24 & 28], in test [1], the inhibition in vivo at 4 mg/kg was 0%, the inhibition in vivo at 16 mg/kg came to 32%, the inhibition in vivo at 128 mg/kg stood at 59% and the inhibition in vivo at 256 mg/kg is 46%. Moreover, in test [1] (64 mg/kg oral administration), the inhibition in vivo at 64 mg/kg worked out at 63%. Also, in test [2], the inhibition in vivo at 4 mg/kg was found to be 0%, the inhibition in vivo at 8 mg/kg amounted to 35%, the inhibition in vivo at 16 mg/kg was 66% and the inhibition in vivo at 32 mg/kg turned out to be 89%. Further, in test [2], the inhibition in vivo at 64 mg/kg was determined as 96%.
On to `CCC1Cc2cc(C(C)C(=O)OCCN3CCOCC3)sc2C1` (stereo not drawn) [Example 30, Hydrochloride of the morpholinoethyl ester of α-methyl(5-ethyl-4,5-dihydro-6H-cyclopenta[b]thienyl-2)-acetic acid], for which, in test [1], the inhibition in vivo at 4 mg/kg is 18%, the inhibition in vivo at 16 mg/kg was determined as 38%, the inhibition in vivo at 128 mg/kg was found to be 67% and the inhibition in vivo at 256 mg/kg is 79%. The inhibition in vivo at 64 mg/kg in test [1] (64 mg/kg oral administration) turned out to be 53%. In test [2], the inhibition in vivo at 8 mg/kg is 9%, the inhibition in vivo at 16 mg/kg was 6%, the inhibition in vivo at 32 mg/kg worked out at 85% and the inhibition in vivo at 64 mg/kg is 93%.
`CC(C(=O)OCCN1CCOCC1)c1cc2c(s1)CC(C(C)C)C2` (stereo not drawn) [Example 36, Hydrochloride of the morpholinoethyl ester of α-methyl-(5-isopropyl-4,5-dihydro-6H-cyclopenta[b]thienyl-2)-acetic acid]: in test [1], the inhibition in vivo at 4 mg/kg came to 29%, the inhibition in vivo at 16 mg/kg worked out at 30%, the inhibition in vivo at 128 mg/kg came to 56% and the inhibition in vivo at 256 mg/kg came out at 66%. Moreover, the inhibition in vivo at 64 mg/kg in test [1] (64 mg/kg oral administration) was determined as 62%. Besides, in test [2], the inhibition in vivo at 8 mg/kg turned out to be 23%, the inhibition in vivo at 16 mg/kg is 80% and the inhibition in vivo at 32 mg/kg amounted to 84%.
In the case of `CCC1Cc2cc(CC(=O)O)sc2C1` (stereo not shown) [Example 17, (5-Ethyl-4,5-dihydro-6H-cyclopenta[b]thienyl-2)-acetic acid], in test [1], the inhibition in vivo at 4 mg/kg was found to be 17%, the inhibition in vivo at 16 mg/kg came to 24%, the inhibition in vivo at 128 mg/kg stood at 52% and the inhibition in vivo at 256 mg/kg was 66%. In test [1] (64 mg/kg oral administration), the inhibition in vivo at 64 mg/kg is 55%. Moreover, in test [2], the inhibition in vivo at 16 mg/kg worked out at 17%, the inhibition in vivo at 32 mg/kg was 58% and the inhibition in vivo at 64 mg/kg is 63%.
Regarding `CC(C)C1Cc2cc(CC(=O)OCCN3CCOCC3)sc2C1` (stereo not shown) [Example 39, Hydrochloride of the morpholinoethyl ester of (5-isopropyl-4,5-dihydro-6H-cyclopenta[b]thienyl-2)-acetic acid], in test [1], the inhibition in vivo at 4 mg/kg was determined as 7%, the inhibition in vivo at 16 mg/kg came to 23%, the inhibition in vivo at 128 mg/kg amounted to 53% and the inhibition in vivo at 256 mg/kg came to 56%. In addition, the inhibition in vivo at 64 mg/kg in test [1] (64 mg/kg oral administration) stood at 20%. In test [2], this molecule yielded an inhibition in vivo at 64 mg/kg of 12% and an inhibition in vivo at 256 mg/kg of 53%.
Regarding `CC(C)C1Cc2cc(CC(=O)O)sc2C1` (stereo not shown) [Example 18, (5-Isopropyl-4,5-dihydro-6H-cyclopenta[b]thienyl-2)-acetic acid], in test [1], the inhibition in vivo at 4 mg/kg turned out to be 0%, the inhibition in vivo at 16 mg/kg came out at 0%, the inhibition in vivo at 128 mg/kg amounted to 47% and the inhibition in vivo at 256 mg/kg worked out at 57%. For the same molecule, the inhibition in vivo at 64 mg/kg in test [1] (64 mg/kg oral administration) was found to be 31%. For the same molecule, in test [2], the inhibition in vivo at 16 mg/kg was determined as 4%, the inhibition in vivo at 32 mg/kg came out at 27% and the inhibition in vivo at 64 mg/kg worked out at 61%.

(Values after US4156000A, “Cyclopenta[b]thiophene derivatives” (Hexachimie, priority 1976, dated 1979).)
